These are literature values, as cited in patent US20130071871A1, “ENZYMATIC DETERMINATION OF LITHIUM IONS USING PHOSPHOGLUCOMUTASE” (SPECIALTY ASSAYS, INC., priority 2011, published 2013).

Bounds are passed on as bounds.

Regarding `[Li]` [Lithium], the highly toxic level (level chosen for the elevated lithium standard, well above the therapeutic range) was ~3 mmol/L. Further, the “serum level too high, severe toxic side effects can occur” value (serum) was > 1200 µM.
